Assay results taken from patent US6448202B1, “Withering-preventing and quick-acting nutrition supplementing agent for gramineous plants” (Ajinomoto Co., Inc., priority 1999, dated 2002).

System: lawn grass (European grass, evergreen lawn grass)
Assay: Hydroponic cultivation of a lawn grass: withering prevention and growth
Format: in vivo
Conditions: for Average root length / Leaf length MAX. / Leaf length MIN. / Total weight of living plant: 5 stocks; for Number of days till the plants were withered: from transplantation till about 70 percent of the leaves were withered
Procedure: Seedlings of a lawn grass (European grass, evergreen lawn grass) were cultivated and divided into eight groups of A to H, one group being composed of 80 stocks. In the groups B to H, inosine and uridine were added to each hydroponic liquid in such amount that the concentration became as shown in the table, and proline was diluted with water such that the concentration became as shown in the table and sprayed onto the leaves every day. Group A was the control.
On the 35th day, five average stocks which had not been withered were sampled from each group. […] In the table, the number of days till the plants were withered means the number of days from transplantation of the seedlings till about 70 percent of the leaves were withered.

[1] = group D: 2 ppm proline sprayed onto leaves every day, 35th day
[2] = group F: 35 ppm proline sprayed onto leaves every day, 35th day
[3] = group G: 0.1 ppm proline sprayed onto leaves every day, 35th day
[4] = group B: 2 ppm inosine in hydroponic liquid
[5] = group B: 2 ppm inosine in hydroponic liquid, 35th day

## O=C(O)[C@@H]1CCCN1 [proline]
Group D: 2 ppm proline
  Remarks: Both leaves and steins
  Number of days till the plants were withered: 38 days
[1]
  Average root length: 3 cm
  Leaf length MAX.: 21 cm
  Leaf length MIN.: 12 cm
  Total weight of living plant: 0.54 g
Group F: 35 ppm proline
  Remarks: Partially wilted.
  Number of days till the plants were withered: 28 days
[2]
  Average root length: 2 cm
  Leaf length MAX.: 20 cm
  Leaf length MIN.: 8 cm
  Total weight of living plant: 0.28 g
Group G: 0.1 ppm proline
  Remarks: Partially wilted.
  Number of days till the plants were withered: 27 days
[3]
  Average root length: 2 cm
  Leaf length MAX.: 19 cm
  Leaf length MIN.: 7 cm
  Total weight of living plant: 0.22 g
proline-treated plot, especially at a concentration of 2 ppm, 35th day
  Growth at the root, leaf length and total weight of the living plants: better growth

## OC[C@H]1O[C@@H](n2cnc3c(O)ncnc32)[C@H](O)[C@@H]1O [inosine, reference compound]
[4]
  Remarks: Wilted and partially
  Number of days till the plants were withered: 25 days
[5]
  Average root length: 2 cm
  Leaf length MAX.: 27 cm
  Leaf length MIN.: 8 cm
  Total weight of living plant: 0.22 g
